The values below come from US20200113853A1, “GAMMA-HYDROXYBUTYRATE COMPOSITIONS AND THEIR USE FOR THE TREATMENT OF DISORDERS” (Jazz Pharmaceuticals Ireland Limited, priority 2017, published 2020).

Data set [1] can be described thus: Maximum solubility of GHB as a function of pH of the aqueous medium. The format is physicochemical. The protocol:
It will be understood that the maximum solubility of GHB is affected by the pH of the aqueous medium. For example, at about pH 4, the maximum amount of Na⋅GHB that can be dissolved is about 450 mg/mL.

For data set [2] the following is noted: 2.25 g and 4.45 g doses, relative to IV administration; cited from earlier work.
For data set [3] the following is noted: generally considered; Yu et al.; cited from earlier work.

Molecules are shown by their SMILES.

Regarding `O=C([O-])CCCO.[Na+]` [sodium oxybate, sodium gamma-hydroxybutyrate], the “maximum amount that can be dissolved” value in data set [1] (at about pH 4, aqueous medium) was “about 450 mg/mL”. Besides, the absolute bioavailability in data set [2] is listed as 88%. Moreover, in data set [3], the solubility class entry is given as “high solubility”.
In the case of `O=C(O)CCCO` [GHB, gamma-hydroxybutyrate], in data set [1] (750 mg/mL), the “minimal pH that will dissolve 750 mg/mL GHB” value is about 6.8.
